Data published in patent US10668156B2, “Active-ingredient-containing solid dispersions based on diethylaminoethyl methacrylate copolymers” (BASF SE, priority 2012, dated 2020).

Legend:
Assay type in all cases: physicochemical
[1] = Film method: loading capacity of active ingredient in polymer films, microscopic assessment after storage; settings: for Loading capacity, active ingredients in %, Films with Kollicoat ® Smartseal + 6 mol partially neutralized: 6 mol % of basic groups neutralized with adipic acid; for Loading capacity, active ingredients in %, Films with Kollicoat ® Smartseal + 6 mol partially neutralized / Loading capacity, active ingredients in %, Films with Kollicoat ® Smartseal + 8 mol partially neutralized / Loading capacity, active ingredients in %, Films with Eudragit ® EPO / Loading capacity, active ingredients in %, Films with Kollicoat ® Smartseal freeze-dried: no crystals in film, storage 7 days 23° C./54% relative humidity; for Loading capacity, active ingredients in %, Films with Kollicoat ® Smartseal + 8 mol partially neutralized: 8 mol % of basic groups neutralized with succinic acid; for Loading capacity, active ingredients in %, Films with Eudragit ® EPO / Loading capacity, active ingredients in %, Films with Kollicoat ® Smartseal freeze-dried: molecularly disperse dissolved active ingredient
Source text: The film method is a process in which a clear solution of the polymer and of the active ingredient is molded to give a thin film which solidifies as a result of the solvent evaporating. Clear solution means that no clouding is evident upon normal inspection. This method is suitable in particular as a screening method in order to determine the loading limits of the solid dispersions in a simple manner. For the screening process, the film can be produced by pouring the solution with the corresponding concentrations of polymer and active ingredient onto glass plates and drawing it out with the help of a blade to give the film. Usually, the films are drawn to layer thicknesses of from 50 to 200 μm. The resulting films are then dried by drawing off the solvent, and solidified as a result. In one or more embodiments, the solvent is removed in vacuo, for example at 1 hPa to 100 hPa. […] Additionally, the removal of the solvent can be effected by the action of temperature.
For the screening process, the films produced are then stored under controlled climatic conditions for defined periods of time—generally 14 days.
The films can then be evaluated by microscope at 40 times magnification. Clear films are a sign of amorphous systems. Cloudy films point to relatively large crystalline fractions.
To prepare the polymer/active ingredient mixture, the substances were weighed in the respective amounts into a 50 ml penicillin bottle.
All of the mixtures were stirred for 24 h on a magnetic stirrer until the constituents had dissolved. After visually assessing the solution (clear solution), the solvent was drawn out on a glass plate using a 120 μm blade. The resulting film was dried for 0.5 h at room temperature of 22+/−2° C. in a fume cupboard and then for 0.5 h in a vacuum drying cabinet at 50° C. and […]. […] Clear films (without active ingredient crystals) indicate molecularly disperse solutions and cloudy films (with active ingredient crystals) indicate crystalline systems.

[2] = Spray-drying: loading capacity assessed by DSC; settings: active ingredient in Kollicoat ® Smartseal
Procedure: (§1) To prepare the polymer/active ingredient mixture, the substances were weighed into an appropriate storage vessel. The corresponding amount of solvent was added and the mixture was stirred until the polymer and the active ingredient had completely dissolved. […] The solids fraction of the spraying solution was 20% by weight for all experiments. The spray-drying was carried out on a laboratory scale.
(§2) The liquid to be dried was atomized using a two-material nozzle. A heated gas (here nitrogen) flowing concurrently dries the distributed drops to give solid particles with particle diameters in the range 5-20 μm. In the entry area of the spray drier, the drying gas is supplied tangentially. The dry product particles are separated off in a cyclone.

[3] = Spray-drying: loading capacity assessed by XRD; settings: active ingredient in Kollicoat ® Smartseal
Procedure: as §1, §2
Loading capacity of Kollicoat® Smartseal with different active ingredients in the spray-drying. Spray-drying experiments carried out on the laboratory scale: • 1. Itraconazole: Kollicoat® Smartseal with 40+50% (w/w) itraconazole • 2. Fenofibrate: Kollicoat® Smartseal with 40+50% (w/w) fenofibrate • 3.

In the case of `NC(=O)N1c2ccccc2C=Cc2ccccc21` [Carbamazepine], the “Loading capacity, active ingredients in %, Films with Kollicoat ® Smartseal + 6 mol partially neutralized” value [1] is reported as 30%, the “Loading capacity, active ingredients in %, Films with Kollicoat ® Smartseal + 8 mol partially neutralized” value [1] is reported as 30% and the “Loading capacity, active ingredients in %, Films with Eudragit ® EPO” value [1] is reported as <10%. The “Loading capacity, active ingredients in %, Films with Kollicoat ® Smartseal freeze-dried” value [1] was 20%.
For `CC(C)Cc1ccc(C(C)C(=O)O)cc1` (stereo not drawn) [Ibuprofen 50, Ibuprofen], the “Loading capacity, active ingredients in %, Films with Kollicoat ® Smartseal + 6 mol partially neutralized” value [1] was 30% and the “Loading capacity, active ingredients in %, Films with Kollicoat ® Smartseal + 8 mol partially neutralized” value [1] was 30%.
With `C#C[C@]1(O)CC[C@H]2[C@@H]3CCC4=Cc5oncc5C[C@]4(C)[C@H]3CC[C@@]21C` [Danazol] the “Loading capacity, active ingredients in %, Films with Kollicoat ® Smartseal + 6 mol partially neutralized” value [1] was 50%, the “Loading capacity, active ingredients in %, Films with Kollicoat ® Smartseal + 8 mol partially neutralized” value [1] was 50% and the “Loading capacity, active ingredients in %, Films with Eudragit ® EPO” value [1] was <10%. For the same molecule, the “Loading capacity, active ingredients in %, Films with Kollicoat ® Smartseal freeze-dried” value [1] was 50%.
In the case of `COc1ccc2cc([C@H](C)C(=O)O)ccc2c1` [Naproxen], the “Loading spray-drying [DSC, %]” value [2] is reported as 50%, the Loading film method ([1]; active ingredient in Kollicoat ® Smartseal) is reported as 50% and the “Loading capacity, active ingredients in %, Films with Eudragit ® EPO” value [1] is reported as 30%. For the same molecule, the “Loading spray-drying [XRD, %]” value [3] was 50%.
For `Clc1ccccc1C(c1ccccc1)(c1ccccc1)n1ccnc1` [Clotrimazole], the “Loading capacity, active ingredients in %, Films with Kollicoat ® Smartseal + 6 mol partially neutralized” value [1] was 35%, the “Loading capacity, active ingredients in %, Films with Kollicoat ® Smartseal + 8 mol partially neutralized” value [1] was 35% and the “Loading capacity, active ingredients in %, Films with Eudragit ® EPO” value [1] was 20%. For the same molecule, the “Loading capacity, active ingredients in %, Films with Kollicoat ® Smartseal freeze-dried” value [1] was 35%.
